According to paper PMC4919066 (PLoS Pathogens, 2016):

Assays:
HCMV Towne = assay: HCMV plaque reduction assay in HFFs; assay type: cell-based, Human Cytomegalovirus; conditions: GCV 5 μM, 0.5 and 2 million cells/plate
Experimental: (§1) Human Foreskin Fibroblasts (HFFs) passage 12–16 (ATCC, CRL-2088) and mouse embryonic fibroblasts (MEFs) passage 9–14 (ATCC, CRL-1658) were grown in Dulbecco's Modified Eagle Medium (DMEM) containing 10% fetal bovine serum (FBS) (Gibco, Carlsbad, CA) in a 5% CO2 incubator at 37°C. Infection with HCMV or HSV was performed in HFFs, and infection with mouse CMV was performed in MEFs. For HCMV, cells were seeded in either a 96-well plate or 100 mm culture plates (Corning Costar, Sigma Aldrich) at 0.5 or 2 million cells /plate. Following 90 minute adsorption, media was removed and cells were washed with PBS. Media containing 4% FBS and compounds were added to each well. Infected treated HFFs were collected at 72 hpi and lysates were assayed for luciferase activity using a luciferase assay kit (Promega, Madison, WI) on GloMax-Multi+ Detection System (Promega). In second cycle assays, supernatants were collected from all conditions of the first cycle at 96 hpi and used for infection of fresh HFFs in 96-well plates. Luciferase activity was measured 72 h following second cycle infection. For HSV1-KOS/Dlux/oriS, a luciferase assay was performed at 24 hpi. Plaque assays were performed with clinical isolates of HSV2 and HCMV Towne (ATCC VR-977). HFFs were seeded at 3 million cells/plate in 12-well plates and infected 24 h later with HSV2 at 200 PFU/well. For HCMV or MCMV, HFFs or MEFs were seeded at 0.5 or 2 million cells /plate in a 12-well plate and infected 24 hours later at 100 PFU/well. Following virus adsorption (60 min and 90 min for HSV and HCMV, respectively), virus was aspirated, and DMEM containing 4% fetal bovine serum (FBS) with (for HSV) or without (for HCMV/MCMV) 0.5% carboxymethyl-cellulose, were added with the compounds at indicated concentrations into triplicate wells. After incubation at 37°C for 10 days (for HCMV), 3 days for MCMV or 2 days (for HSV), the overlay was removed and plaques were counted after crystal violet staining.

MCMV = MCMV plaque reduction assay in MEFs; assay type: cell-based, mouse CMV; conditions: GCV 5 μM, 0.5 and 2 million cells/plate
Experimental: The pp28-luciferase HCMV Towne and a GCV-resistant pp28-luciferase were used. The recombinant viruses express luciferase under the control of the late CMV gene promoter, pp28. Luciferase expression is activated 48–72 hours post infection (hpi). The recombinant viruses provide a highly-sensitive reporter system which correlates with plaque reduction assay. The Towne HCMV strain (ATCC VR-977) was used for plaque reduction, quantitative reverse transcriptase PCR (qRT-PCR), and immunoprecipitation assays. Human herpes virus strains were: luciferase HSV1- KOS/Dlux/oriS [52] and clinical isolates of HSV2. The clinical isolates were provided by the clinical microbiology laboratory with no identifiers that can link to a specific subject. Murid Herpesvirus (MCMV: ATCC VR-1399) was used for infection of mouse embryonic fibroblasts (MEFs) and mice.
as §1, with “For HSV1-KOS/Dlux/oriS, a luciferase assay was performed at 24 hpi. Plaque assays were performed with clinical isolates of HSV2 and HCMV Towne (ATCC VR-977). HFFs were seeded at 3 million cells/plate in 12-well plates and infected 24 h later with HSV2 at 200 PFU/well. For HCMV or MCMV, HFFs or MEFs were seeded at 0.5 or 2 million cells /plate in a 12-well plate and infected 24 hours later at 100 PFU/well. Following virus adsorption (60 min and 90 min for HSV and HCMV, respectively), virus was aspirated, and DMEM containing 4% fetal bovine serum (FBS) with (for HSV) or without (for HCMV/MCMV) 0.5% carboxymethyl-cellulose, were added with the compounds at indicated concentrations into triplicate wells.” left out

HCMV [1] = assay: Virus entry, pp65 immunofluorescence assay; assay type: cell-based, Human Cytomegalovirus; conditions: emetine 75 nM, GCV 10 μM, CpG 2006 10 μM, added 24 h prior to infection
HCMV [2] = assay: Generation of drug resistant virus; assay type: cell-based, Human Cytomegalovirus; conditions: 5 passages, UL97 sequencing
Experimental: Screening of drug resistant virus was performed as reported. Two million cells were plated on a 6-well plate and infected with HCMV (MOI 0.05). […] The cells were maintained in DMEM with 4% FBS until plaques were observed. The supernatants from these plates were used to infect fresh HFFs in a 6-well plate and each time drug concentration was increased by two fold. […] DNA extracted from supernatants collected at the last stage was used for UL97 sequencing.

MDM2-IE2 = assay: Co-immunoprecipitation MDM2-IE2 in transfected HEK293 cells; assay type: cell-based; conditions: IE1/2 transfection, emetine 75 nM or GCV 5 μM for 4 h
Experimental: HEK-293 cells seeded into 10 cm petri dishes were transfected with HCMV plasmid encoding IE1 and IE2 (pRL45), using Lipofectamine 2000 in serum free medium. After 6 h, 10% FBS containing media was added along with 10 μM of MG132. […] Cells were then harvested to prepare lysates for IP.
Non-infected, infected or emetine-treated HFFs were treated with MG132 (10 μM) for 12h. Cells were harvested after 24 hpi and lysed with IP buffer containing 150 mM NaCl, 50mM Tris pH 7.5, 2 mM EDTA, 0.5% TritonX-100 and 0.5% NP-40-40. 1 mg of lysate was precleared with bead slurry for 30 min. The precleared lysates were incubated with anti-MDM2 (2 μg) antibody overnight. The antibody complexes were isolated using protein A/G beads (Santa Cruz), washed three times with 50% IP buffer. The immunoprecipitate-protein A/G beads were boiled in SDS sample buffer, and the supernatant was analyzed on SDS-PAGE gels after immunoblotting as described previously. 1% of the cell lysate used for IP was loaded on gels as ‘Input’. Confirmatory reverse IPs were performed as described in each experiment. Isotype control antibodies included: rabbit IgG polyclonal, mouse IgG2a kappa and mouse IgG2b kappa monoclonal (Abcam). Mouse monoclonal RPS19 antibody (Abcam) served as an additional negative control for the IPs. Densitometry analysis was performed to determine relative ratio of immunoprecipitated protein to its input level.

Question: With Nc1nc(O)c2ncn(COC(CO)CO)c2n1 [GCV, Ganciclovir] as the compound, how does the “HCMV inhibition and cell density” value (HCMV Towne) read?
Answer: The value was “inhibited HCMV and MCMV irrespective of cell density”.

Question: What about the “MCMV inhibition and cell density” value (MCMV) of the same compound?
Answer: The value was “inhibited HCMV and MCMV irrespective of cell density”.

Question: What about the “inhibition of viral entry” value (HCMV [1]) of the same compound?
Answer: Its value is “neither emetine nor GCV inhibited viral entry”.

Question: And the “selection of resistant virus with increasing drug concentration” value (HCMV [2])?
Answer: Its value is “selected for a C607Y mutation in UL97”.

Question: What about the “interaction between MDM2 and IE2” value (MDM2-IE2) of the same compound?
Answer: Its value is “had no effect on this interaction”.
